Several values for one entry are separate records, joined by “and”; a condition that tells them apart may be missing. Identical values can stand only once. Like-named read-outs stand apart in the source and are kept apart here.
Assays:
[1] = tested on: rVSV Indiana; assay: microbe, parasite or virus in culture; assay type: cell-based, recombinant vesicular stomatitis virus; conditions: Vesicular stomatitis virus, A549
[2] = in vivo; design: species or system rhesus macaques; conditions: both sexes, Indian-strain, rhesus monkey, po, 6 mg/kg
Description: WRAIR is fully accredited by AAALAC International.

[3] = tested on: DENV-2/16681; assay: NHP DENV-2 study, plasma viral RNA RT-qPCR; design: species or system rhesus macaques (M. mulatta); conditions: rhesus monkey, in vivo
[4] = tested on: INF-A Taiwan/1/86; assay: microbe, parasite or virus in culture; assay type: cell-based; conditions: Influenza A virus, MDCK
[5] = tested on: DENV-1 G3 Malaysia; assay type: cell-based; conditions: T108I in NS4B
[6] = tested on: NS4A-2K-NS4B precursor cleavage; assay: microbe, parasite or virus in culture; assay type: cell-based, DENV-2
[7] = Pharmacokinetics in mice, i.v. and oral; assay type: in vivo, CD-1 mice; conditions: for bioavailability: po
Method: The housing conditions and experimental procedures were approved by the ethics committee on animal experiments of Janssen Pharmaceutica NV (license number LA1100119). Janssen Pharmaceutica NV has full AAALAC accreditation. […] The blood samples were immediately centrifuged at 4 °C and the plasma was stored at −20 °C. Compound concentrations in the plasma samples were determined using the API 5500 LC–MS/MS system mass spectrometer (Applied Biosystems). […] (Certara).

[8] = tested on: DENV-2/16681; assay: NHP DENV-2 study, NS1 ELISA in serum; design: species or system rhesus macaques (M. mulatta); conditions: rhesus monkey, in vivo
[9] = tested on: unrelated DNA and RNA viruses; assay: Panel of unrelated DNA and RNA viruses; assay type: cell-based
[10] = tested on: DENV-1 G4 45AZ5; assay: DENV-1/45AZ5 antiviral assay RT-qPCR; assay type: cell-based
Method: (§1) A total of 20 DENV strains, representing the available genotypes within the four DENV serotypes, were used in the in vitro genotype panel, from which 19 viruses were described previously in ref. [3] and one additional virus, DENV-1/45AZ5 (ref. [54]), was added.
(§2) A potential toxic effect on host cells was tested in parallel, while omitting virus infection, using the MTS/PMS method (Promega) for Vero cells, or by high-content imaging for C6/36 cells, as described previously. […] RT–qPCR data were analysed using the QuantStudio 12K Flex software (v.1.2.3) or SDS v.1.2 Applied Biosystems software. Inhibition values for antiviral molecules were plotted using KaleidaGraph plotting software (v.4.03, Synergy Software).

[11] = ATPLite cell viability assay; assay type: cell-based; conditions: human, Huh-7 cells; Huh-7, n=1
Method: In parallel, the toxicity was measured using an ATPLite cell viability luminescence assay (PerkinElmer). The assays were performed in three different cell types (Vero, Huh-7 and THP-1/DC-SIGN) as described in ref. [3] to exclude cell-specific activity of the compound.

[12] = tested on: DENV-3 G5 Brazil; assay type: cell-based; conditions: T108A in NS4B
[13] = tested on: DENV-4 G3 Thailand; assay: DENV genotype panel RT-qPCR, Vero E6; assay type: cell-based; conditions: Dengue virus, DENV4, Vero C1008
Method: as §1, §2

[14] = tested on: INF-A PR8/1934; assay: microbe, parasite or virus in culture; assay type: cell-based; conditions: Influenza A virus, PR8, MDCK
[15] = male, CD-1, plasma, mouse oral 1 mg/kg
[16] = male, CD-1, plasma, mouse oral 10 mg/kg
[17] = male, CD-1, plasma, mouse oral 30 mg/kg
[18] = mouse i.v. 2.5 mg/kg, 2.5 mg/kg

## COc1cc(N[C@H](C(=O)c2c[nH]c3ccc(OC(F)(F)F)cc23)c2ccc(Cl)cc2OC)cc(S(C)(=O)=O)c1 [JNJ-1802]
[1]
  EC50: 6900 nM
[2]
  Tmax: 8 h
[3]
  DENV RNA in plasma: undetectable DENV RNA levels throughout the study period
  Viral load Assay 1 FLAG: BLOQ (key: BLOQ = Below limit of detection)
  Viral load Assay 2 FLAG: BLOQ (key: BLOQ = Below limit of detection)
  Viral load Assay 2 FLAG (2nd column): BLOQ (key: BLOQ = Below limit of detection)
  day first DENV-RNA positive (≥LLOQ): 5
  day first DENV-RNA positive (≥LLOQ), per animal: 21 and 6 and 10
  peak viraemia: comparable to the vehicle controls
[4]
  EC50: > 2600 nM
[4]; read-out: EC50, Mean
  EC50: > 25000 nM
[4]; read-out: EC90, Mean
  EC90: > 25000 nM
[5]
  EC90: 3.04 ± 0.69 nM
[6]; Dengue virus, read-out: EC50 2k-4B Input, Mean, WT
  EC50: 1.72 nM
[6]; L94F, 10 nM
  2K-NS4B proportion in lysate: 18.25% and 11.99% and 16.55%
[6]; L94F, 500 nM
  2K-NS4B proportion in lysate: 4.03% and 6.25% and 1.49%
  NS4A-2K-NS4B proportion in lysate: 75.65% and 50.22% and 78.28%
[6]; L94F, 1000 nM
  2K-NS4B proportion in lysate: 3.64% and 2.91% and 2.22%
  NS4A-2K-NS4B proportion in lysate: 77.84% and 43.16% and 74.46%
[6]; L94F, read-out: EC50 2k-4B Input, Mean
  EC50: 108 nM
[6]; T108I, 0.5 nM
  2K-NS4B proportion in lysate: 23.11% and 13.79% and 13.87%
  NS4A-2K-NS4B proportion in lysate: 44.71% and 43.02% and 68.40%
[6]; T108I, 1 nM
  NS4A-2K-NS4B proportion in lysate: 72.39% and 47.37% and 49.13%
[6]; T108I, 5 nM
  2K-NS4B proportion in lysate: 9.35% and 15.53% and 10.95%
  NS4A-2K-NS4B proportion in lysate: 71.83% and 55.33% and 51.65%
  NS4B proportion in lysate: 18.83% and 29.14% and 37.41%
[6]; T108I, 10 nM
  2K-NS4B proportion in lysate: 5.10% and 8.23% and 10.83%
  NS4A-2K-NS4B proportion in lysate: 71.88% and 68.85% and 55.44%
  NS4B proportion in lysate: 23.02% and 22.91% and 33.72%
[6]; T108I, 50 nM
  2K-NS4B proportion in lysate: 3.79% and 3.62% and 3.12%
  NS4A-2K-NS4B proportion in lysate: 72.18% and 59.64% and 51.99%
  NS4B proportion in lysate: 24.02% and 36.74% and 44.89%
[6]; T108I, single replicates, read-out: EC50 (2k-4B), Input
  EC50: 6.08 nM and 6.88 nM and 20.9 nM
[6]; T108I, read-out: EC50 2k-4B Input, Mean
  EC50: 11.3 nM
[6]; V91A, 10 nM
  2K-NS4B proportion in lysate: 18.41% and 10.69% and 19.20%
[6]; V91A, 50 nM
  2K-NS4B proportion in lysate: 12.06% and 15.08% and 7.29%
[6]; V91A, 100 nM
  2K-NS4B proportion in lysate: 6.22% and 11.02% and 2.95%
[6]; V91A, 500 nM
  2K-NS4B proportion in lysate: 2.16% and 3.56% and 1.47%
  NS4A-2K-NS4B proportion in lysate: 73.60% and 43.02% and 80.18%
[6]; V91A, 1000 nM
  2K-NS4B proportion in lysate: 2.06% and 2.88% and 1.78%
[6]; V91A, single replicates, read-out: EC50 (2k-4B), Input
  EC50: 44.9 nM and 134 nM and 55.6 nM
[6]; V91A, read-out: EC50 2k-4B Input, Mean
  EC50: 78 nM
[6]; WT, 0.5 nM
  2K-NS4B proportion in lysate: 20.47% and 12.95% and 13.02%
  NS4A-2K-NS4B proportion in lysate: 48.09% and 36.63% and 65.93%
[6]; WT, 1 nM
  2K-NS4B proportion in lysate: 5.60% and 9.33% and 12.10%
  NS4A-2K-NS4B proportion in lysate: 66.81% and 44.14% and 43.57%
  NS4B proportion in lysate: 27.59% and 46.53% and 44.33%
[6]; WT, 5 nM
  2K-NS4B proportion in lysate: 3.71% and 6.95% and 6.88%
  NS4A-2K-NS4B proportion in lysate: 60.94% and 43.36% and 51.87%
  NS4B proportion in lysate: 35.35% and 49.69% and 41.25%
[6]; WT, 10 nM
  2K-NS4B proportion in lysate: 3.62% and 6.23% and 4.49%
  NS4A-2K-NS4B proportion in lysate: 59.94% and 47.30% and 50.84%
  NS4B proportion in lysate: 36.44% and 46.47% and 44.67%
[6]; WT, 50 nM
  2K-NS4B proportion in lysate: 5.23% and 6.22% and 5.06%
  NS4A-2K-NS4B proportion in lysate: 53.55% and 57.44% and 58.39%
  NS4B proportion in lysate: 41.22% and 36.34% and 36.55%
[6]; read-out: EC50 (2k-4B), Input, WT, single replicates
  EC50: 0.491 nM and 0.62 nM and 4.06 nM
[7]; male, CD-1, in vivo, iv, mouse i.v. 2.5 mg/kg, read-out: CLp
  clearance: 4.97 ± 1.26 mL/min/kg
[7]; male, CD-1, in vivo, mouse oral 3 mg/kg
  Cmax: 501 ± 149 ng/mL
[7]; male, CD-1, mouse, plasma, iv, 2.5 mg/kg, mouse i.v. 2.5 mg/kg
  half-life: 6.2 h
[7]; male, CD-1, mouse, plasma, 1 mg/kg, mouse oral 1 mg/kg
  bioavailability: 46 ± 6%
[7]; male, CD-1, mouse, plasma, 3 mg/kg, mouse oral 3 mg/kg
  bioavailability: 59 ± 28%
[7]; male, CD-1, mouse, plasma, 10 mg/kg, mouse oral 10 mg/kg
  bioavailability: > 100%
[7]; male, CD-1, mouse, plasma, 30 mg/kg, mouse oral 30 mg/kg
  bioavailability: 121 ± 21%
[7]; male, CD-1, mouse, plasma, mice, single oral dose 1 to 30 mg per kg, read-out: AUC0–24h, range
  AUC(0-t): 1520 to 120000 ng·h/mL
[7]; male, CD-1, plasma, iv, mouse i.v. 2.5 mg/kg
  AUC(0-inf): 8820 ng·h/mL
[7]; male, CD-1, plasma, iv, mouse i.v. 2.5 mg/kg, read-out: AUC(0-24h)
  AUC(0-t): 8240 ng·h/mL
[7]; [15]
  Cmax: 119 ± 26 ng/mL
  Tmax: 5 ± 1.7 h
[7]; male, CD-1, plasma, mouse oral 1 mg/kg, read-out: AUC(0-24h)
  AUC(0-t): 1520 ng·h/mL
[7]; male, CD-1, plasma, mouse oral 3 mg/kg
  Tmax: 5 ± 1.7 h
[7]; male, CD-1, plasma, mouse oral 3 mg/kg, read-out: AUC(0-24h)
  AUC(0-t): 5780 ng·h/mL
[7]; [16]
  Cmax: 2730 ng/mL
  Tmax: 7 h
[7]; male, CD-1, plasma, mouse oral 10 mg/kg, read-out: AUC(0-24h)
  AUC(0-t): 35600 ng·h/mL
[7]; [17]
  Cmax: 7760 ng/mL
  Tmax: 6 ± 1.7 h
[7]; male, CD-1, plasma, mouse oral 30 mg/kg, read-out: AUC(0-24h)
  AUC(0-t): 120000 ng·h/mL
[7]; [18]
  Vdssp: 2.51 ± 0.55 L/kg and 2.51 ± 0.553 L/kg
  t1/2: 6.17 ± 0.23 h
[7]; mouse oral 1 mg/kg, 1 mg/kg
  F: 46.1+/-6.47%
[7]; mouse oral 3 mg/kg, 3 mg/kg
  F: 58.5+/-27.9%
[8]
  NS1 protein in serum: positive NS1 signal
[9]
  activity against unrelated DNA and RNA viruses: inactive
[10]; DENV-qPCR-VeroECACC-deltaCt-DENV-1/45AZ5_pre-seeding, single experiments (EXPERIMENT_ID), listed as 64281802-AAA, read-out: EC50 (µM) result_value, DENV-1/45AZ5
  EC50: 0.0016 µM
[10]; Dengue virus, DENV1
  EC90: 4.18 ± 0.71 nM
[10]; Dengue virus, DENV1, DENV-qPCR-VeroECACC-deltaCt-DENV-1/45AZ5_pre-seeding, mean of 6 results, read-out: EC50 (µM) Mean, DENV-1/45AZ5
  EC50: 0.00152 µM
[10]; Dengue virus, DENV1, DENV-qPCR-VeroECACC-deltaCt-DENV-1/45AZ5_pre-seeding, single experiments (EXPERIMENT_ID), read-out: EC50 (µM) result_value, DENV-1/45AZ5
  EC50: 0.0015 µM
[11]
  CC50: 12700 nM
[12]
  EC50: 1.8 ± 1.4 nM
  EC90: 3.8 ± 1.1 nM
[13]
  EC50: 45 nM
  EC90: 46 ± 12 nM
[14]
  EC50: > 2600 nM
[14]; read-out: EC50, Mean
  EC50: > 25000 nM
[14]; read-out: EC90, Mean
  EC90: > 25000 nM

Source: article PMC10033419, “Blocking NS3–NS4B interaction inhibits dengue virus in non-human primates” (Nature, 2023)
